Legend:
NCI-H69 = test: Cell growth test (Cell Titer Blue) NCI-H69; type: cell-based; details: Homo sapiens, 72 h, NCI-H69, Lung cancer, 3 days
Description: (§1) Moreover, the compound of Example 14 was subjected to a cell growth test using various types of cell lines.
(§2) All cell lines other than the below-noticed cells were each seeded in a well plate, in which an RPMI-1640 medium supplemented with penicillin/streptomycin and FBS with a final concentration of 10% was placed. The human prostate cancer cell line VCaP (ATCC) was seeded in a well plate, in which DMEM medium supplemented with penicillin/streptomycin and FBS with a final concentration of 10% was placed. […] Thereafter, using Enspire Multimode Plate Reader (PerkinElmer), the amount of fluorescence at an excitation wavelength of 531 nm and a fluorescence wavelength of 615 nm was measured. Since the amount of fluorescence is in proportion to the concentration of a florescent product resorufin that is converted from resazurin as a redox dye by living cells, the amount of fluorescence was used as an indicator of the number of living cells. The growth inhibition percentage of the test compound in each concentration was calculated according to the following equation. Growth inhibition percentage (%)=(amount of fluorescence in test compound−added well)/(amount of fluorescence in DMSO−added well)×100 […]

T-24 = test: Cell growth test (Cell Titer Blue) T-24; type: cell-based; details: Homo sapiens, 72 h, T-24, Bladder cancer, 3 days
Description: as §1, §2

NCI-H460 = test: Cell growth test (Cell Titer Blue) NCI-H460; type: cell-based; details: Homo sapiens, 72 h, NCI-H460, Lung cancer, 3 days
Description: as §1, §2

PC-3 = test: Cell growth test (Cell Titer Blue) PC-3; type: cell-based; details: Homo sapiens, 72 h, PC-3, Prostate cancer, 3 days
Description: as §1, §2

[1] = tested on: MV4-11 subcutaneously transplanted tumor; test: Medicinal effect test, MV4-11-subcutaneously-transplanted cancer-bearing mouse models, intravenous administration; type: in vivo; details: intravenously, once per day, 25 days, BALB/c nu/nu mice
Description: T/C (%) was calculated from the average tumor volume of each group according to the following equation, and medicinal effects were then evaluated. T/C(%)=[1−(average tumor volume of drug administration group)/(average tumor volume of solvent administration group)]×100%
Moreover, using the above-described mouse models, medicinal effects obtained upon intravenous administration were evaluated.
The human acute myeloid leukemia cell line MV4-11 (ATCC) was suspended in a mixture of RPMI-1640 […] and Matrigel (Corning), and the obtained mixture was then subcutaneously transplanted into 6-week-old female BALB/c nu/nu mice (CLEA Japan, Inc.). After confirming that the average tumor volume exceeded 200 mm^3, a test compound was dissolved in a solvent (a normal saline containing 1 equivalent of hydrochloric acid), and the obtained solution was then intravenously administered to the mice at a daily dose of 10 to 30 mg/kg, once per day, for 25 days. As a negative control, a solvent administration group involving administration of a normal saline was established. The tumor diameter was measured on a daily basis, and the tumor volume was calculated. In the same manner as described above, the tumor volume and T/C (%) were calculated, and medicinal effects were then evaluated.

T47D = test: Cell growth test (Cell Titer Blue) T47D; type: cell-based; details: Homo sapiens, 72 h, Breast cancer, 3 days
Description: as §1, §2

Q: With `CCn1c(=O)cc(C2CCN(C)CC2)c2cc(C(=O)N(C)c3ccc(C)cc3)ccc21` [Example 14, 1-Ethyl-N-methyl-N-(4-methylphenyl)-4-(1-methylpiperidin-4-yl)-2-oxo-1,2-dihydroquinoline-6-carboxamide] as the molecule, how does the GI50 (NCI-H69) read?
A: 975 nM

Q: What about the GI50 (T-24) of the same molecule?
A: 3040 nM

Q: And the GI50 (NCI-H460)?
A: 2030 nM

Q: What about the GI50 (PC-3) of the same molecule?
A: 175 nM

Q: And the “T/C (%)” value ([1]; 10 mg/kg)?
A: 66%

Q: What about the “T/C (%)” value ([1]; 30 mg/kg) of the same molecule?
A: 78%

Q: What about the GI50 (T47D) of the same molecule?
A: 286 nM
